{"source": "patent EP0004261A2", "about": "“Imidazole derivatives, method for their preparation and pharmaceutical compositions containing them” (F. HOFFMANN-LA ROCHE & CO. Aktiengesellschaft, priority 1978, dated 1979)", "tested_on": "Bastardhunde", "test": "Coronary-dilating / haemodynamic effect in anaesthetised open-chest dogs (electromagnetic flowmeter, aortic catheter, tachograph)", "settings": "Dosis i.v. 1 mg/kg in Propylenglykol, n = 3", "key": {"[1]": {"settings": "maximal effect in percent of baseline"}}}
{"substance": "2-Aethyl-N^5(oder N^4)-nitro-1-(2,3,5-tri-O-nitro-ß-D-ribofuranosyl)imidazol-4,5-dicarboxamid [mit R1 = CH3; R2 = H]", "values": [{"measurement": "BP [min] (arterieller Blutdruck, Wirkungsdauer)", "setting": "duration of effect", "result": ">60", "unit": "min"}, {"measurement": "CABF [min] (Coronarfluss, Wirkungsdauer)", "setting": "duration of effect", "result": ">60", "unit": "min"}, {"measurement": "HR [min] (Herzfrequenz, Wirkungsdauer)", "setting": "duration of effect", "result": ">60", "unit": "min"}, {"measurement": "PL [min] (Druckgradient, Wirkungsdauer)", "setting": "duration of effect", "result": 60, "unit": "min"}, {"measurement": "BP Δ % (arterieller Blutdruck)", "setting": "[1]", "result": -32, "unit": "%"}, {"measurement": "CABF Δ % (Coronarfluss)", "setting": "[1]", "result": -19, "unit": "%"}, {"measurement": "HR Δ % (Herzfrequenz)", "setting": "[1]", "result": -6, "unit": "%"}, {"measurement": "PL Δ % (Druckgradient, Aortadruck minus peripherem Coronardruck)", "setting": "[1]", "result": -24, "unit": "%"}]}
